“And” between values parts separate entries of the source, which are not always exact repeats. Identical values can stand only once. “Also recorded” adds a separate entry of the source.
How the values were obtained:
DU145 xenograft = assay: In vivo antitumor activity, DU145 xenograft mouse model; design: species or system BALB/c nude mice; settings: for Tumor weight (Fig. 7c): individual mice; for Tumor volume (Fig. 7a): in cm³ (unit assumed)
22Rv1 cells = assay: Invasion assay (transwell); assay type: cell-based, human; settings: for Cell invasion (cell number): replicates
DU145 cells = assay: Cell growth assay (5-day course); assay type: cell-based, human
PC-3 cells = assay: Cell growth assay (5-day course); assay type: cell-based, human; settings: PC-3; for Relative proliferation rate / optical density: replicates
[1] = YK-2-69 (100 mg/kg), Day 37, individual mice, 100 mg/kg
[2] = YK-2-69 (100 mg/kg), Day 39, individual mice, 100 mg/kg
[3] = YK-2-69 (100 mg/kg), Day 41, individual mice, 100 mg/kg
[4] = YK-2-69 (100 mg/kg), Day 43, individual mice, 100 mg/kg
[5] = YK-2-69 (100 mg/kg), Day 45, individual mice, 100 mg/kg
[6] = YK-2-69 (100 mg/kg), Day 49, individual mice, 100 mg/kg
[7] = YK-2-69 (200 mg/kg), Day 1, individual mice, 200 mg/kg
[8] = YK-2-69 (200 mg/kg), Day 5, individual mice, 200 mg/kg

In the case of `CCN1CCN(C(=O)c2ccc(Nc3ncc(F)c(-c4ccc5nc(N(C)C)sc5c4)n3)nc2)CC1` [YK-2-69], the “body weight of mice (in words)” value (DU145 xenograft; DU145 xenograft, 200 mg/kg orally once a day) is reported as “increased gradually”, the “antitumor activity (in words)” value (DU145 xenograft; DU145 xenograft, 200 mg/kg orally once a day, seven weeks, 200 mg/kg) is reported as “much better antitumor activities than both enzalutamide and palbociclib; also recorded: decreased the volume of tumor since the 31st day” and the “Tumor weight (Fig. 7c)” value (DU145 xenograft; High dose, in g (unit assumed)) is reported as 0.51 and 0.47 and 0.43 and 0.45 and 0.62 and 0.73 and 0.69 and 0.41. For the same compound, the “Tumor weight (Fig. 7c)” value (DU145 xenograft; Low dose, in g (unit assumed)) was 1.34 and 1.32 and 1.29 and 1.36 and 1.47 and 1.24 and 1.68 and 1.73 and 1.54 and 1.49, the “Body weight (Fig. 7b)” value (DU145 xenograft; [1]) was 26.5 and 24.2 and 25.7 and 25.5 (2×) and 24.9 and 24.6 and 25.2 and 25.6 and 26.6 and the “Tumor volume (Fig. 7a)” value (DU145 xenograft; [1]) was 0.9849 and 0.8117 and 1.322 and 0.8631 and 0.9203 and 0.6445 and 0.8644 and 1.073 and 1.152 and 1.1772. For the same compound, the “Body weight (Fig. 7b)” value (DU145 xenograft; [2]) was 26.2 and 24.5 and 25.9 and 25.8 (2×) and 25.3 and 24.9 and 25.4 and 26 and 26.8, the “Tumor volume (Fig. 7a)” value (DU145 xenograft; [2]) was 0.957 and 0.8113 and 1.305 and 0.8461 and 0.9452 and 0.6025 and 0.7668 and 1.032 and 1.21 and 1.322 and the “Body weight (Fig. 7b)” value (DU145 xenograft; [3]) was 26.4 and 24.6 and 26.1 and 25.8 and 25.6 (2×) and 25.2 and 26.3 and 26 and 26.5. The “Tumor volume (Fig. 7a)” value (DU145 xenograft; [3]) was 1.01 and 0.8586 and 1.367 and 0.9073 and 0.9955 and 0.6291 and 0.7765 and 1.063 and 1.256 and 1.304, the “Body weight (Fig. 7b)” value (DU145 xenograft; [4]) was 26.7 and 25 and 26.3 (2×) and 25.9 (2×) and 25.4 and 26.5 and 25.7 and 26.6 and the “Tumor volume (Fig. 7a)” value (DU145 xenograft; [4]) was 1.081 and 0.9018 and 1.428 and 0.9736 and 1.066 and 0.6924 and 0.8141 and 1.105 and 1.304 and 1.393. The “Body weight (Fig. 7b)” value (DU145 xenograft; [5]) was 26.9 (2×) and 25.2 and 26.7 and 26.2 and 26.3 and 25.7 and 26.8 and 25.9 and 26.5, the “Tumor volume (Fig. 7a)” value (DU145 xenograft; [5]) was 1.137 and 0.9183 and 1.533 and 1.03 and 1.104 and 0.7734 and 0.8511 and 1.184 and 1.29 and 1.475 and the “Tumor volume (Fig. 7a)” value (DU145 xenograft; YK-2-69 (100 mg/kg), Day 47, individual mice, 100 mg/kg) was 1.209 and 0.991 and 1.624 and 1.045 and 1.005 and 0.829 and 0.881 and 1.225 and 1.336 and 1.553. The “Body weight (Fig. 7b)” value (DU145 xenograft; YK-2-69 (100 mg/kg), Day 47, individual mice, 100 mg/kg, in g (unit assumed)) was 27.2 and 25.5 and 26.9 and 26.3 and 26.6 and 25.8 and 27.1 and 26 and 26.8 and 27.4, the “Body weight (Fig. 7b)” value (DU145 xenograft; [6]) was 27.5 and 25.8 and 27.1 (3×) and 26.6 and 26.9 and 26.1 and 27.3 and 26.2 and the “Tumor volume (Fig. 7a)” value (DU145 xenograft; [6]) was 1.289 and 1.004 and 1.711 and 1.157 and 1.055 and 0.8821 and 0.8937 and 1.296 and 1.303 and 1.663. For the same compound, the “Body weight (Fig. 7b)” value (DU145 xenograft; [7]) was 19.6 and 20.5 and 20.2 (2×) and 19.9 and 20.3 and 20.7 and 21.4 and 21 and 20, the “Tumor volume (Fig. 7a)” value (DU145 xenograft; [7]) was 0.07862 and 0.07877 and 0.07202 and 0.06915 and 0.0797 and 0.06867 and 0.07232 and 0.09045 and 0.0645 and 0.09096 and the “Tumor volume (Fig. 7a)” value (DU145 xenograft; YK-2-69 (200 mg/kg), Day 3, individual mice, 200 mg/kg) was 0.1045 and 0.1116 and 0.1049 and 0.08973 and 0.1165 and 0.1011 and 0.1007 and 0.1453 and 0.08834 and 0.1272. The “Body weight (Fig. 7b)” value (DU145 xenograft; YK-2-69 (200 mg/kg), Day 3, individual mice, 200 mg/kg, in g (unit assumed)) was 19.9 and 20.6 and 20.5 and 20.2 and 20.7 and 21.5 and 21.3 and 20.3 and 20.1, the “Body weight (Fig. 7b)” value (DU145 xenograft; YK-2-69 (200 mg/kg), Day 3, individual mice, in g (unit assumed)) was 21 and the “Body weight (Fig. 7b)” value (DU145 xenograft; [8]) was 20.2 and 20.9 and 20.8 and 20.4 and 21.1 (2×) and 21.8 and 21.6 and 20.3 and 20.5. The “Tumor volume (Fig. 7a)” value (DU145 xenograft; [8]) was 0.1323 and 0.1488 and 0.1486 and 0.1179 and 0.1568 and 0.1343 and 0.1497 and 0.2074 and 0.1183 and 0.1702, the “Cell invasion (cell number)” value (22Rv1 cells; 22Rv1, 0.5 μM) was 990 cell number and 970 cell number and 1020 cell number and the “Cell invasion (cell number)” value (22Rv1 cells; 22Rv1, 1 μM) was 730 cell number and 680 cell number and 710 cell number. The “Cell invasion (cell number)” value (22Rv1 cells; 22Rv1, 2 μM) was 520 cell number and 490 cell number and 509 cell number, the “invasion (in words)” value (22Rv1 cells; 22Rv1 cells, dose-dependent) was “remarkably inhibited the migration and invasion” and the “Relative proliferation rate mean” value (DU145 cells; DU145, 4 μM, day 1) was 1.572. For the same compound, the “Relative proliferation rate mean” value (DU145 cells; DU145, 4 μM, day 2) was 2.148, the “Relative proliferation rate mean” value (DU145 cells; DU145, 4 μM, day 3) was 4.361 and the “Relative proliferation rate mean” value (DU145 cells; DU145, 4 μM, day 4) was 5.61. For the same compound, the “Relative proliferation rate mean” value (DU145 cells; DU145, 8 μM, day 1) was 1.538, the “Relative proliferation rate mean” value (DU145 cells; DU145, 8 μM, day 2) was 2.008 and the “Relative proliferation rate mean” value (DU145 cells; DU145, 8 μM, day 3) was 3.775. The “Relative proliferation rate mean” value (DU145 cells; DU145, 8 μM, day 4) was 4.448, the “Relative proliferation rate mean” value (DU145 cells; DU145, 12 μM, day 1) was 1.322 and the “Relative proliferation rate mean” value (DU145 cells; DU145, 12 μM, day 2) was 1.207. For the same compound, the “Relative proliferation rate mean” value (DU145 cells; DU145, 12 μM, day 3) was 1.763, the “Relative proliferation rate mean” value (DU145 cells; DU145, 12 μM, day 4) was 2.506 and the “cell proliferation, 5-day course/colony (in words)” value (DU145 cells; DU145 cells, dose-dependent) was “significantly inhibited the cell proliferation”. For the same compound, the “Relative proliferation rate mean” value (PC-3 cells; 1 µM, day 0) was 1, the Relative proliferation rate (PC-3 cells; 1 µM, day 0) was 1 and the optical density (PC-3 cells; 1 µM, day 0) was 0.270. The “Relative proliferation rate mean” value (PC-3 cells; 1 µM, day 1) was 1.314, the Relative proliferation rate (PC-3 cells; 1 µM, day 1) was 1.339 and 1.335 and 1.268 and the optical density (PC-3 cells; 1 µM, day 1) was 0.361 and 0.36 and 0.342. For the same compound, the “Relative proliferation rate mean” value (PC-3 cells; 1 µM, day 2) was 1.774, the Relative proliferation rate (PC-3 cells; 1 µM, day 2) was 1.713 and 1.81 and 1.799 and the optical density (PC-3 cells; 1 µM, day 2) was 0.462 and 0.488 and 0.485. For the same compound, the “Relative proliferation rate mean” value (PC-3 cells; 1 µM, day 3) was 3.173, the Relative proliferation rate (PC-3 cells; 1 µM, day 3) was 3.23 and 3.148 and 3.141 and the optical density (PC-3 cells; 1 µM, day 3) was 0.871 and 0.849 and 0.847. For the same compound, the “Relative proliferation rate mean” value (PC-3 cells; 1 µM, day 4) was 6.7021, the Relative proliferation rate (PC-3 cells; 1 µM, day 4) was 6.623 and 6.6712 and 6.812 and the optical density (PC-3 cells; 1 µM, day 4) was 1.786 and 1.799 and 1.837. For the same compound, the “Relative proliferation rate mean” value (PC-3 cells; 2 µM, day 0) was 1, the Relative proliferation rate (PC-3 cells; 2 µM, day 0) was 1 and the optical density (PC-3 cells; 2 µM, day 0) was 0.273. The “Relative proliferation rate mean” value (PC-3 cells; 2 µM, day 1) was 1.2692, the Relative proliferation rate (PC-3 cells; 2 µM, day 1) was 1.28 and 1.295 and 1.233 and the optical density (PC-3 cells; 2 µM, day 1) was 0.35 and 0.354 and 0.337. The “Relative proliferation rate mean” value (PC-3 cells; 2 µM, day 2) was 1.697, the Relative proliferation rate (PC-3 cells; 2 µM, day 2) was 1.752 and 1.668 and 1.672 and the optical density (PC-3 cells; 2 µM, day 2) was 0.479 and 0.456 and 0.457. The “Relative proliferation rate mean” value (PC-3 cells; 2 µM, day 3) was 2.625, the Relative proliferation rate (PC-3 cells; 2 µM, day 3) was 2.612 and 2.575 and 2.688 and the optical density (PC-3 cells; 2 µM, day 3) was 0.714 and 0.704 and 0.735. The “Relative proliferation rate mean” value (PC-3 cells; 2 µM, day 4) was 5.619, the Relative proliferation rate (PC-3 cells; 2 µM, day 4) was 5.662 and 5.571 and 5.625 and the optical density (PC-3 cells; 2 µM, day 4) was 1.548 and 1.523 and 1.538. For the same compound, the “Relative proliferation rate mean” value (PC-3 cells; 4 µM, day 0) was 1, the Relative proliferation rate (PC-3 cells; 4 µM, day 0) was 1 and the optical density (PC-3 cells; 4 µM, day 0) was 0.274. For the same compound, the “Relative proliferation rate mean” value (PC-3 cells; 4 µM, day 1) was 1.161, the Relative proliferation rate (PC-3 cells; 4 µM, day 1) was 1.103 and 1.191 (2×) and the optical density (PC-3 cells; 4 µM, day 1) was 0.302 and 0.326 (2×). For the same compound, the “Relative proliferation rate mean” value (PC-3 cells; 4 µM, day 2) was 1.646, the Relative proliferation rate (PC-3 cells; 4 µM, day 2) was 1.545 and 1.706 and 1.687 and the optical density (PC-3 cells; 4 µM, day 2) was 0.423 and 0.467 and 0.462. For the same compound, the “Relative proliferation rate mean” value (PC-3 cells; 4 µM, day 3) was 1.9905.

— article PMC9133015 (Nature Communications, 2022)
